From patent US9156872B2, “2′-azido substituted nucleoside derivatives and methods of use thereof for the treatment of viral diseases” (priority 2011, dated 2015)

Tested on: HCV replicon cells
Assay: Cell-based HCV replicon assay (replicon RNA by Taqman real time PCR)
Settings: HCV replicon 1b, cells harvested on day 3; read-out: 1b EC50

Row | SMILES | EC50
1 | C[C@@]1(N=[N+]=[N-])[C@@H]2OP(=O)(OC3CCCC3)OC[C@H]2O[C@H]1n1ccc(=O)[nH]c1=O (stereo partly drawn) [Compound 87] | 3100 nM
2 | CCCOP1(=O)OC[C@H]2O[C@@H](n3ccc(=O)[nH]c3=O)[C@](C)(N=[N+]=[N-])[C@@H]2O1 (stereo partly drawn) [Compound 86] | > 100000 nM

Same assay, conditions: Hepatitis C virus, 72 h, HCV replicon 1b, cells harvested on day 3; read-out: 1b EC50

Row | SMILES | EC50
3 | C[C@@]1(N=[N+]=[N-])[C@@H]2OP(=O)(OC3CCC3)OC[C@H]2O[C@H]1n1ccc(=O)[nH]c1=O (stereo partly drawn) [Compound 83] | 63000 nM
4 | CC(=O)Nc1ccn([C@@H]2O[C@H](CO)[C@@H](O)[C@@]2(C)N=[N+]=[N-])c(=O)n1 [Compound 2] | 75000 nM
5 | CCCC(CCC)COC(=O)[C@H](C)NP(=O)(O)OC[C@H]1O[C@@H](n2ccc(N)nc2=O)[C@](C)(N=[N+]=[N-])[C@@H]1O [Compound 318] | 100000 nM
6 | CCCOP1(=O)OC[C@H]2O[C@@H](n3cnc4c(OCC)nc(N)nc43)[C@](C)(N=[N+]=[N-])[C@@H]2O1 (stereo partly drawn) [Compound 24] | > 100000 nM

Same assay, conditions: Hepatitis C virus, 72 h, read-out: 1b EC50

Row | SMILES | EC50
7 | CCOc1nc(N)nc2c1ncn2[C@@H]1O[C@H](COP(=O)(N[C@@H](C)C(=O)OC)Oc2ccc(Cl)c(Cl)c2)[C@@H](O)[C@@]1(C)N=[N+]=[N-] (stereo partly drawn) [Compound 308] | 2100 nM
8 | CCCOC(=O)[C@H](C)NP(=O)(OC[C@H]1O[C@@H](n2cnc3c(OC)nc(N)nc32)[C@](C)(N=[N+]=[N-])[C@@H]1O)Oc1ccccc1 (stereo partly drawn) [Compound 78] | 1100 nM
9 | CC(C)OC(=O)[C@H](C)NP(=O)(OC[C@H]1O[C@@H](n2ccc(=O)[nH]c2=O)[C@](C)(N=[N+]=[N-])[C@@H]1O)Oc1ccc2c(c1)OCO2 (stereo partly drawn) [Compound 42] | 25000 nM
10 | CCCCOC(=O)[C@H](C)NP(=O)(OC[C@H]1O[C@@H](n2ccc(=O)[nH]c2=O)[C@](C)(N=[N+]=[N-])[C@@H]1O)Oc1ccc(Cl)c(Cl)c1 (stereo partly drawn) [Compound 372] | 6000 nM
11 | CCOc1nc(N)nc2c1ncn2[C@@H]1O[C@H](COP(=O)(N[C@@H](C)C(=O)OC2CCCCC2)Oc2ccccc2)[C@@H](O)[C@@]1(C)N=[N+]=[N-] (stereo partly drawn) [Compound 145] | 200 nM
12 | CCOc1nc(N)nc2c1ncn2[C@@H]1O[C@H](COP(=O)(N[C@@H](C)C(=O)OC(C)C)Oc2ccccc2)[C@@H](O)[C@@]1(C)N=[N+]=[N-] (stereo partly drawn) [Compound 20] | 1000 nM
13 | CC(C)OC(=O)[C@H](C)NP(=O)(OC[C@H]1O[C@@H](n2ccc(N)nc2=O)[C@](C)(N=[N+]=[N-])[C@@H]1O)Oc1ccc(Cl)c(Cl)c1 (stereo partly drawn) [Compound 195] | 20 nM
14 | Cc1ccc(C(C)C)cc1OP(=O)(N[C@@H](C)C(=O)OC(C)C)OC[C@H]1O[C@@H](n2ccc(=O)[nH]c2=O)[C@](C)(N=[N+]=[N-])[C@@H]1O (stereo partly drawn) [Compound 177] | 12000 nM
15 | CCCCOC(=O)[C@H](C)NP(=O)(OC[C@H]1O[C@@H](n2ccc(N)nc2=O)[C@](C)(N=[N+]=[N-])[C@@H]1O)Oc1cccc2ccccc12 (stereo partly drawn) [Compound 3] | 1200 nM
16 | CCCCOC(=O)[C@H](C)NP(=O)(OC[C@H]1O[C@@H](n2cnc3c(OC)nc(N)nc32)[C@](C)(N=[N+]=[N-])C1O)Oc1ccccc1 (single isomer, unassigned) [Compound 262] | 2400 nM
17 | CCCCOC(=O)[C@H](C)NP(=O)(OC[C@H]1O[C@@H](n2cnc3c(OCC)nc(N)nc32)[C@](C)(N=[N+]=[N-])[C@@H]1O)Oc1ccc(Cl)cc1 (stereo partly drawn) [Compound 368] | 80 nM
18 | CCCCOC(=O)[C@H](C)NP(=O)(OC[C@H]1O[C@@H](n2cnc3c(OCC)nc(N)nc32)[C@](C)(N=[N+]=[N-])[C@@H]1O)Oc1cccc2ccccc12 (stereo partly drawn) [Compound 12] | 1300 nM
19 | CCOC(=O)[C@H](C)NP(=O)(OC[C@H]1O[C@@H](n2cnc3c(OCC)nc(N)nc32)[C@](C)(N=[N+]=[N-])[C@@H]1O)Oc1ccc(Cl)cc1 (stereo partly drawn) [Compound 71] | 600 nM
20 | COC(=O)[C@H](C)NP(=O)(OC[C@H]1O[C@@H](n2ccc(=O)[nH]c2=O)[C@](C)(N=[N+]=[N-])[C@@H]1O)Oc1cccc2ccccc12 (stereo partly drawn) [Compound 41] | 3 nM
21 | CCOC(=O)[C@H](C)NP(=O)(OC[C@H]1O[C@@H](n2cnc3c(OC)nc(N)nc32)[C@](C)(N=[N+]=[N-])[C@@H]1O)Oc1ccc(F)cc1 (stereo partly drawn) [Compound 247] | 700 nM
22 | C[C@H](NP(=O)(OC[C@H]1O[C@@H](n2ccc(N)nc2=O)[C@](C)(N=[N+]=[N-])[C@@H]1O)Oc1ccccc1)C(=O)OC1CCCCC1 (single isomer, unassigned) [Compound 337] | 27000 nM
23 | CCOC(=O)[C@H](C)NP(=O)(OC[C@H]1O[C@@H](n2ccc(N)nc2=O)[C@](C)(N=[N+]=[N-])[C@@H]1O)Oc1ccccc1 (stereo partly drawn) [Compound 13] | 6400 nM
24 | CCCCOC(=O)[C@H](C)NP(=O)(OC[C@H]1O[C@@H](n2cnc3c(OCC)nc(N)nc32)[C@](C)(N=[N+]=[N-])[C@@H]1O)Oc1ccc2c(c1)OCO2 (stereo partly drawn) [Compound 371] | 1400 nM
25 | CCOc1nc(N)nc2c1ncn2[C@@H]1O[C@H](COP(=O)(N[C@@H](C)C(=O)OCC(C)(C)C)Oc2ccccc2)[C@@H](O)[C@@]1(C)N=[N+]=[N-] (stereo partly drawn) [Compound 11] | 1100 nM
26 | CCOc1nc(N)nc2c1ncn2[C@@H]1O[C@H](COP(=O)(N[C@@H](C)C(=O)OC)Oc2ccc(F)cc2)[C@@H](O)[C@@]1(C)N=[N+]=[N-] (stereo partly drawn) [Compound 35] | 1600 nM
27 | C[C@H](NP(=O)(OC[C@H]1O[C@@H](n2ccc(=O)[nH]c2=O)[C@](C)(N=[N+]=[N-])[C@@H]1O)Oc1ccccc1)C(=O)OCc1ccccc1 (stereo partly drawn) [Compound 299] | 5600 nM
28 | COC(=O)[C@H](C)NP(=O)(OC[C@H]1O[C@@H](n2cnc3c(NC4CC4)nc(N)nc32)[C@](C)(N=[N+]=[N-])[C@@H]1O)Oc1ccccc1 (stereo partly drawn) [Compound 386] | 5300 nM

Same assay, conditions: read-out: 1b EC50

Row | SMILES | EC50
29 | CCOC(=O)c1ccccc1OP(=O)(N[C@@H](C)C(=O)OC)OC[C@H]1O[C@@H](n2ccc(=O)[nH]c2=O)[C@](C)(N=[N+]=[N-])[C@@H]1O (single isomer, unassigned) [Compound 225] | 2800 nM
30 | CC(C)OC(=O)[C@H](C)NP(=O)(OC[C@H]1O[C@@H](n2ccc(=O)[nH]c2=O)[C@](C)(N=[N+]=[N-])[C@@H]1O)Oc1ccc2c(c1)OCO2 (stereo partly drawn) [Compound 234] | 25000 nM
31 | COC(=O)[C@H](C)NP(=O)(OC[C@H]1O[C@@H](n2cnc3c(OC)nc(N)nc32)[C@](C)(N=[N+]=[N-])[C@@H]1O)Oc1ccccc1Cl (single isomer, unassigned) [Compound 257] | 700 nM
32 | CCOC(=O)[C@H](C)NP(=O)(OC[C@H]1O[C@@H](n2cnc3c(OCC)nc(N)nc32)[C@](C)(N=[N+]=[N-])[C@@H]1O)Oc1ccc(Cl)cc1 (single isomer, unassigned) [Compound 353] | 900 nM
33 | CCOc1nc(N)nc2c1ncn2[C@@H]1O[C@H](COP(=O)(N[C@@H](C)C(=O)OCC(C)(C)C)Oc2ccccc2)[C@@H](O)[C@@]1(C)N=[N+]=[N-] (single isomer, unassigned) [Compound 160] | 6800 nM
34 | COc1nc(N)nc2c1ncn2[C@@H]1O[C@H](COP(=O)(N[C@@H](C)C(=O)OC(C)C)Oc2ccccc2)C(O)[C@@]1(C)N=[N+]=[N-] (single isomer, unassigned) [Compound 253] | 600 nM
35 | CC(C)OC(=O)[C@H](C)NP(=O)(OC[C@H]1O[C@@H](n2ccc(N)nc2=O)[C@](C)(N=[N+]=[N-])[C@@H]1O)Oc1ccccc1Cl (single isomer, unassigned) [Compound 333] | 1300 nM
36 | CC(C)OC(=O)[C@H](C)NP(=O)(OC[C@H]1O[C@@H](n2ccc(N)nc2=O)[C@](C)(N=[N+]=[N-])[C@@H]1O)Oc1ccc2c(c1)OCO2 (single isomer, unassigned) [Compound 334] | 13000 nM
37 | CCOc1nc(N)nc2c1ncn2[C@@H]1O[C@H](COP(=O)(N[C@@H](C)C(=O)OC2CCCCC2)Oc2ccc(Cl)cc2)[C@@H](O)[C@@]1(C)N=[N+]=[N-] (single isomer, unassigned) [Compound 314] | 1300 nM
38 | COC(=O)[C@H](C)NP(=O)(OC[C@H]1O[C@@H](n2ccc(N)nc2=O)[C@](C)(N=[N+]=[N-])[C@@H]1O)Oc1ccccc1Cl (stereo partly drawn) [Compound 94] | 10000 nM
39 | COC(=O)[C@H](C)NP(=O)(OC[C@H]1O[C@@H](n2ccc(N)nc2=O)[C@](C)(N=[N+]=[N-])[C@@H]1O)Oc1ccc(F)cc1 (single isomer, unassigned) [Compound 187] | 22000 nM
40 | CCOC(=O)[C@H](C)NP(=O)(OC[C@H]1O[C@@H](n2cnc3c(OC)nc(N)nc32)[C@](C)(N=[N+]=[N-])[C@@H]1O)Oc1ccccc1 (stereo partly drawn) [Compound 250] | 700 nM
41 | COC(=O)c1ccccc1OP(=O)(N[C@@H](C)C(=O)OC)OC[C@H]1O[C@@H](n2ccc(=O)[nH]c2=O)[C@](C)(N=[N+]=[N-])[C@@H]1O (single isomer, unassigned) [Compound 216] | 1300 nM
42 | COc1nc(N)nc2c1ncn2[C@@H]1O[C@H](COP(=O)(N[C@@H](C)C(=O)OC(C)C)Oc2ccc(Cl)cc2)[C@@H](O)[C@@]1(C)N=[N+]=[N-] (single isomer, unassigned) [Compound 294] | 3400 nM
43 | COC(=O)[C@H](C)NP(=O)(OC[C@H]1O[C@@H](n2ccc(N)nc2=O)[C@](C)(N=[N+]=[N-])[C@@H]1O)Oc1ccccc1Cl (single isomer, unassigned) [Compound 202] | 10000 nM
44 | C[C@H](NP(=O)(OC[C@H]1O[C@@H](n2ccc(=O)[nH]c2=O)[C@](C)(N=[N+]=[N-])[C@@H]1O)Oc1ccccc1)C(=O)OCC(C)(C)C (single isomer, unassigned) [Compound 153] | 19000 nM
45 | COc1nc(N)nc2c1ncn2[C@@H]1O[C@H](COP(=O)(N[C@@H](C)C(=O)OC(C)C)Oc2ccc(Cl)c(Cl)c2)[C@@H](O)[C@@]1(C)N=[N+]=[N-] (single isomer, unassigned) [Compound 283] | 8400 nM
46 | COc1nc(N)nc2c1ncn2[C@@H]1O[C@H](COP(=O)(N[C@@H](C)C(=O)OC(C)C)Oc2ccccc2Cl)[C@@H](O)[C@@]1(C)N=[N+]=[N-] (single isomer, unassigned) [Compound 280] | 5000 nM
47 | CCOC(=O)[C@H](C)NP(=O)(OC[C@H]1O[C@@H](n2cnc3c(OC)nc(N)nc32)[C@](C)(N=[N+]=[N-])[C@@H]1O)Oc1ccc(Cl)cc1 (single isomer, unassigned) [Compound 289] | 700 nM
48 | CCOc1nc(N)nc2c1ncn2[C@@H]1O[C@H](COP(=O)(N[C@@H](C)C(=O)OC(C)C)Oc2ccc(F)cc2)[C@@H](O)[C@@]1(C)N=[N+]=[N-] (single isomer, unassigned) [Compound 365] | 1100 nM
